PubChem BioAssay AID1963861 (Molecular Pharmacology Branch, DTP, NCI, 2024)

Test system: 885724-159-R-J1-PDC KRAS PDC multicell spheroid viability
Assay: Anticancer human tumor 885724-159-R-J1-PDC patient-derived pancreatic adenocarcinoma cell line growth inhibition [KRAS2]
Conditions: for IC50: curve of first compound; for viability, T/C: stronger effect = lower value
How it was run: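 KRAS-mutant tumor cells were grown as spheroids with HUVEC endothelial cells and human MSCs as stroma. Targeted agents were tested alone and with KRAS pathway inhibitors. Doses started at or near clinical Cmax, or 10 microM, descending half-log.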

[1] = second compound 0.1 µM, first compound 0.0316 µM
[2] = second compound 0.1 µM, first compound 0.1 µM
[3] = second compound 0.1 µM, first compound 0.316 µM
[4] = second compound 0.1 µM, first compound 1 µM
[5] = second compound 0.1 µM, first compound 3.16 µM
[6] = second compound 0.316 µM, first compound 0.0316 µM
[7] = second compound 0.316 µM, first compound 0.1 µM
[8] = second compound 0.316 µM, first compound 0.316 µM
[9] = second compound 0.316 µM, first compound 1 µM
[10] = second compound 0.316 µM, first compound 3.16 µM
[11] = second compound 1 µM, first compound 0.0316 µM
[12] = second compound 1 µM, first compound 0.1 µM
[13] = second compound 1 µM, first compound 0.316 µM
[14] = second compound 1 µM, first compound 1 µM
[15] = second compound 1 µM, first compound 3.16 µM
[16] = second compound 3.16 µM, first compound 0.0316 µM
[17] = second compound 3.16 µM, first compound 0.1 µM
[18] = second compound 3.16 µM, first compound 0.316 µM
[19] = second compound 3.16 µM, first compound 1 µM
[20] = second compound 3.16 µM, first compound 3.16 µM
[21] = second compound 10 µM, first compound 0.0316 µM
[22] = second compound 10 µM, first compound 0.1 µM
[23] = second compound 10 µM, first compound 0.316 µM
[24] = second compound 10 µM, first compound 1 µM
[25] = second compound 10 µM, first compound 3.16 µM
[26] = second compound 0.1 µM, first compound 10 µM
[27] = second compound 0.316 µM, first compound 10 µM
[28] = second compound 1 µM, first compound 10 µM
[29] = second compound 3.16 µM, first compound 10 µM
[30] = second compound 10 µM, first compound 10 µM
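Note: spheroids exposed to agents for 7 days before readout.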

Compound	IC50 (second compound 0.1 µM)	IC50 (second compound 0.316 µM)	IC50 (second compound 1 µM)	IC50 (second compound 3.16 µM)	IC50 (second compound 10 µM)	viability, T/C [1]	viability, T/C [2]	viability, T/C [3]	viability, T/C [4]	viability, T/C [5]	viability, T/C [6]	viability, T/C [7]	viability, T/C [8]	viability, T/C [9]	viability, T/C [10]	viability, T/C [11]	viability, T/C [12]	viability, T/C [13]	viability, T/C [14]	viability, T/C [15]	other results
CC1COCCN1c1cc(-c2ccnn2C)c2ccnc(-c3ccn[nH]3)c2n1 (stereo not given) + COc1cc2nc(C)nc(NC(C)c3cc(N)cc(C(F)(F)F)c3)c2cc1OC1CCOC1	2720 nM	> 3160 nM	> 3160 nM	> 3160 nM	< 10 nM	91.6%	71.5%	62.5%	49.1%	50.9%	94.3%	70%	63%	52%	53.9%	88.4%	73.5%	60.6%	56%	58.4%	viability, T/C (second compound 0.1 µM, first compound 0.01 µM): 99.4%; viability, T/C (second compound 0.316 µM, first compound 0.01 µM): 101%; viability, T/C (second compound 1 µM, first compound 0.01 µM): 111%; viability, T/C (second compound 3.16 µM, first compound 0.01 µM): 97.3%; viability, T/C [16]: 89.2%; viability, T/C [17]: 71.3%; viability, T/C [18]: 61.9%; viability, T/C [19]: 59.2%; viability, T/C [20]: 52.9%; viability, T/C (second compound 10 µM, first compound 0.01 µM): 46%; viability, T/C [21]: 51.7%; viability, T/C [22]: 49.4%; viability, T/C [23]: 34.2%; viability, T/C [24]: 41.9%; viability, T/C [25]: 32.2%
CC1OCC2(CCN(c3cnc(Sc4ccnc(N)c4Cl)c(N)n3)CC2)C1N (stereo not given) + COc1cc2nc(C)nc(NC(C)c3cc(N)cc(C(F)(F)F)c3)c2cc1OC1CCOC1	> 10000 nM	> 10000 nM	> 10000 nM	> 10000 nM	< 31.6 nM	90%	84.8%	76.7%	67.1%	62.1%	93.4%	82.7%	73.2%	67.6%	57.2%	83.4%	82.5%	70%	62.7%	57%	viability, T/C [26]: 53.7%; viability, T/C [27]: 54.7%; viability, T/C [28]: 51.4%; viability, T/C [16]: 76.5%; viability, T/C [17]: 73.1%; viability, T/C [18]: 69.6%; viability, T/C [19]: 59%; viability, T/C [20]: 55.1%; viability, T/C [29]: 51.6%; viability, T/C [21]: 22.7%; viability, T/C [22]: 21.7%; viability, T/C [23]: 19.5%; viability, T/C [24]: 13.1%; viability, T/C [25]: 13.5%; viability, T/C [30]: 5.33%
CCNC(=O)CC1N=C(c2ccc(Cl)cc2)c2cc(OC)ccc2-n2c(C)nnc21 (stereo not given) + COc1cc2nc(C)nc(NC(C)c3cc(N)cc(C(F)(F)F)c3)c2cc1OC1CCOC1	2350 nM	3080 nM	2490 nM	952 nM	< 31.6 nM	99.4%	91.5%	75.2%	53.8%	50%	101%	89.6%	76.4%	57%	51.7%	95.9%	94.4%	72%	55.9%	49.1%	viability, T/C [26]: 45.7%; viability, T/C [27]: 44.8%; viability, T/C [28]: 46.9%; viability, T/C [16]: 94.6%; viability, T/C [17]: 99.6%; viability, T/C [18]: 69.1%; viability, T/C [19]: 54.3%; viability, T/C [20]: 47.8%; viability, T/C [29]: 44.6%; viability, T/C [21]: 34.8%; viability, T/C [22]: 22.4%; viability, T/C [23]: 16.5%; viability, T/C [24]: 14.1%; viability, T/C [25]: 20.1%; viability, T/C [30]: 12.4%
